Measured values from the supplement of paper PMC13380429.

Columns and labels:
Details in all cases: 72 h
[1] = tested on: Caco-2; test: cell viability relative to DMSO; higher = less toxic
[2] = tested on: Calu-3; test: as above
[3] = tested on: HepG2; test: as above
[4] = tested on: U2OS; test: as above
[5] = tested on: Vero E6; test: as above
[6] = tested on: Caco-2; test: relative viability EC50 (midpoint between 100% and the lowest measured viability); higher = less toxic
[7] = tested on: Calu-3; test: as above
[8] = tested on: U2OS; test: as above
[9] = tested on: Vero E6; test: as above
[10] = tested on: Caco-2; test: drug sensitivity score (DSS) for viability; higher = more toxic; extreme values may be limits of the assay
[11] = tested on: Calu-3; test: as above
[12] = tested on: HepG2; test: as above
[13] = tested on: U2OS; test: as above
[14] = tested on: Vero E6; test: as above
[15] = tested on: HepG2; test: relative viability EC50 (midpoint between 100% and the lowest measured viability); higher = less toxic

Structure (SMILES) | cell viability ([1]; 1 nM) [%] | cell viability ([1]; 10 nM) [%] | cell viability ([1]; 100 nM) [%] | cell viability ([1]; 1000 nM) [%] | cell viability ([1]; 10000 nM) [%] | cell viability ([2]; 1 nM) [%] | cell viability ([2]; 10 nM) [%] | cell viability ([2]; 100 nM) [%] | cell viability ([2]; 1000 nM) [%] | cell viability ([2]; 10000 nM) [%] | cell viability ([3]; 1 nM) [%] | cell viability ([3]; 10 nM) [%] | cell viability ([3]; 100 nM) [%] | cell viability ([3]; 1000 nM) [%] | cell viability ([3]; 10000 nM) [%] | cell viability ([4]; 1 nM) [%] | cell viability ([4]; 10 nM) [%] | cell viability ([4]; 100 nM) [%] | cell viability ([4]; 1000 nM) [%] | cell viability ([4]; 10000 nM) [%] | cell viability ([5]; 1 nM) [%] | cell viability ([5]; 10 nM) [%] | cell viability ([5]; 100 nM) [%] | cell viability ([5]; 1000 nM) [%] | cell viability ([5]; 10000 nM) [%] | relative viability EC50 [6] [µM] | relative viability EC50 [7] [µM] | relative viability EC50 [8] [µM] | relative viability EC50 [9] [µM] | drug sensitivity score [10] | drug sensitivity score [11] | drug sensitivity score [12] | drug sensitivity score [13] | drug sensitivity score [14] | relative viability EC50 [15] [µM]
O=C1OCCN1/N=C/c1ccc([N+](=O)[O-])o1 [furazolidone] | 101 | 90.2 | 95.6 | 93.6 | 86.1 | 111 | 97.6 | 100 | 101 | 110 | 99.3 | 104 | 102 | 111 | 70.5 | 101 | 93.2 | 97.1 | 96.6 | 96.5 | 106 | 97.8 | 105 | 98.2 | 97.4 | > 10 | > 10 | > 10 | > 10 | 0.1 | 0 | 0.8 | 0 | 0 | –
O[C@H]1[C@H](O)[C@@H](O)[C@H](O)[C@@H](O)[C@H]1O [inositol] | 95.8 | 111 | 91 | 105 | 69.8 | 112 | 94.6 | 104 | 96.1 | 100 | 123 | 102 | 105 | 93.3 | 98.8 | 106 | 104 | 96.7 | 103 | 101 | 110 | 101 | 98.1 | 99.4 | 99.5 | – | > 10 | > 10 | > 10 | 1 | 0 | 0 | 0 | 0 | > 10
Cc1ccc(C(=O)N(CCCN)[C@@H](c2nc3cc(Cl)ccc3c(=O)n2Cc2ccccc2)C(C)C)cc1 [ispinesib] | 93.7 | 81.5 | 68.8 | 64 | 63.1 | 97.3 | 88.5 | 90.8 | 90 | 5.4 | 98.7 | 55.8 | 38.7 | 40 | 18.8 | 104 | 92.1 | 47.6 | 43.2 | 31.3 | 103 | 94 | 42.4 | 40.8 | 38.1 | – | 2.29 | 0.0446 | 0.029 | 12.1 | 6.9 | 25.4 | 19.4 | 19.5 | 0.0173
Cc1cccc(C)c1NC(=O)CN1CCN(CCCC(c2ccc(F)cc2)c2ccc(F)cc2)CC1 [lidoflazine] | 83.7 | 99.5 | 84.9 | 105 | 68.2 | 106 | 113 | 112 | 102 | 88.4 | 99.5 | 109 | 108 | 96.2 | 80.9 | 105 | 103 | 101 | 107 | 92.7 | 117 | 106 | 102 | 98.2 | 87.4 | – | > 10 | > 10 | > 10 | 1.1 | 0 | 1 | 0 | 0.2 | > 10
C[C@H](CCC(=O)O)[C@H]1CC[C@H]2[C@@H]3CC[C@@H]4C[C@H](O)CC[C@]4(C)[C@H]3CC[C@]12C [lithocholic-acid] | 106 | 96.9 | 101 | 98 | 99 | 98.9 | 91.2 | 98.2 | 93.3 | 105 | 102 | 96.4 | 108 | 90.2 | 111 | – | – | – | – | – | 102 | 101 | 102 | 101 | 98.7 | > 10 | > 10 | – | > 10 | 0 | 0 | 0 | – | 0 | > 10
